Experiments:
[1] = system: human cardiac fibroblasts; experiment: Cell-based inhibition assay of generation of procollagen I C-terminal propeptide (PICP), PICP ELISA; settings: Cardiac fibroblast; human cardiac fibroblasts, crowding media, 24 to 48 hr, PICP ELISA of media; read-out: pIC50, PICP cellular inhibition assay (converted)
Summary of the method: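 Cardiac fibroblasts (passage ≤6) treated 24–48 h at 37 °C with compounds in ficoll crowding medium containing 100 μM ascorbic acid, DMSO <0.3%. PICP secreted into the medium was quantified by ELISA, normalised to untreated controls and fitted to log(inhibitor)–response to give pIC50.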

[2] = system: human cardiac fibroblasts; experiment: Cell-based inhibition assay of mature collagen deposition (immunostaining); settings: Cardiac fibroblast; human cardiac fibroblasts, crowding media, 24 to 48 hr, collagen I immunostaining normalized to nuclei; read-out: pIC50, mature collagen cellular inhibition assay (converted)
Experimental: Cell-Based Inhibition Assay of Generation of Procollagen I C-Terminal Propeptide (PICP) and Mature Collagen:
An adaptation of the collagen deposition assay described by Chen, C. Z. C., et al., British Journal of Pharmacology, 2009, 158, 1196-1209 was used to examine effect of compounds on procollagen I processing and collagen deposition. In the adapted assay, human cardiac fibroblasts were utilized. Processing of procollagen I was determined by a PICP ELISA assay and deposition of mature collagen was determined by immunostaining.
Human cardiac fibroblasts were cultured and maintained until passage 6 in FGM-3 media (Lonza, #CC-3132) in a 37° C. humidified incubator with 5% CO2. They were then seeded in 96-well black wall, clear bottom plates at 10,000 to 15,000 cells per well in eagle's minimum essential media (EMEM, ATCC #30-2003) containing 10% fetal bovine serum (FBS, Life Technologies #10082147), 1% Glutamax (Life Technologies #35050061) and 1% Penicillin and Streptomycin (Life Technologies #15070063). These cultures were placed in 37° C. incubator. The next day, media were removed by aspiration and cells were rinsed with phosphate buffered saline. Crowding media (also called ficoll media) was prepared by adding 112.5 mg/ml of ficoll70 and 75 mg/ml ficoll400 (GE healthcare #17-0310-10 and 17-0300-10, respectively), 100 μM ascorbic acid, 1% Glutamax and 1% Penicillin and Streptomycin to EMEM media. Test compounds (dissolved in DMSO) were diluted into crowding media and then added to the cells. Final concentration of DMSO in crowding media was less than 0.3%. Cells were treated for 24 to 48 hr in a 37° C. incubator. At the end of the treatment period, cell media were collected. The level of PICP in the media were determined by a PICP ELISA assay (Quidel #8003) following the manufacturer's protocol. Potencies of test compounds were calculated by fitting PICP levels, relative to untreated controls, to log (inhibitor) vs. response equation using Graphpad Prism software 5.0 and expressed as pIC50.
For some compounds, deposition of mature collagen was measured by immunostaining in addition to PICP levels. At the end of the treatment period, cells on culture plate were fixed with 100% methanol (prechilled to −20° C.) for 10 min. Then the cells were immunostained with mouse anti-mature collagen I antibody (1:500 dilution, Sigma#C2456), anti-mouse secondary antibody Alexa647 (1:500 dilution, Invitrogen#A21236) and Hoechst (for nuclei, 2 μg/ml, Invitrogen#H3596). Fluorescent image acquisition was done using the Operetta High Content Imaging system (Perkin Elmer). For each image field, the intensity of mature collagen staining was normalized with the number of nuclei. Normalized collagen levels were used to calculate the potency of test compounds with Graphpad Prism software, as described above.

Row | SMILES | IC50 [1] [nM] | IC50 [2] [nM]
1 | CCCCC[C@@H](C(=O)NCNC(=O)c1ccc(-c2ccc(P(=O)(O)O)c(OCC)c2)o1)[C@@H](CC)N(O)C=O [Example 98, (2-ethoxy-4-(5-((((R)-2-((R)-1-(N-hydroxyformamido)propyl)heptanamido)methyl)carbamoyl)furan-2-yl)phenyl)phosphonic acid] | < 3980 | < 1000
2 | CCCCC[C@@H](C(=O)NCNC(=O)c1ccc(-c2cc(CP(=O)(O)O)cc(OCC)c2)o1)[C@@H](CC)N(O)C=O [Example 99, (3-ethoxy-5-(5-((((R)-2-((R)-1-(N-hydroxy-formamido)propyl)heptanamido)methyl)carbamoyl)furan-2-yl)benzyl) phosphonic acid] | < 3980 | < 1000
3 | CCCCC[C@@H](C(=O)NCNC(=O)c1ccc(-c2cc(OCC)c(F)c(C(=O)O)c2)o1)[C@@H](CC)N(O)C=O [Example 111, 3-ethoxy-2-fluoro-5-(5-((((R)-2-((R)-1-(N-hydroxy-formamido)propyl)heptanamido)methyl)carbamoyl)furan-2-yl)benzoic acid] | < 3980 | < 1000
4 | CCCCC[C@@H](C(=O)NCNC(=O)c1ccc(-c2cc(O)cc(C(=O)O)c2)o1)[C@@H](CC)N(O)C=O [Example 112, 3-hydroxy-5-(5-((((R)-2((R)-1-(N-hydroxyformamido)propyl)heptanamido)methyl)carbamoyl)furan-2-yl)benzoic acid] | < 3980 | < 1000
5 | CCCCC[C@@H](C(=O)NCNC(=O)c1ccc(-c2cc(OCC(=O)O)cc(C(=O)O)c2)o1)[C@@H](CC)N(O)C=O [Example 113, 3-(carboxymethoxy)-5-(5-((((R)-2-((R)-1-(N-hydroxformamido)propyl)heptanamido)methyl)carbamoyl)furan-2-yl)benzoic acid] | < 3980 | < 1000
6 | CCCCC[C@@H](C(=O)NCNC(=O)c1ccc(-c2cc(OCC(=O)O)cc(C(=O)O)c2O)o1)[C@@H](CC)N(O)C=O [Example 121, 5-(carboxymethoxy)-2-hydroxy-3-(5-((((R)-2-((R)-1-(N-hydroxyformamido)propyl)heptanamido)methyl)carbamoyl)furan-2-yl)benzoic acid] | < 3980 | < 1000
7 | CCOc1cc(C(=O)N(CC(=O)O)CC(=O)O)cc(-c2ccc(C(=O)NCNC(=O)[C@H](CCc3ccc(F)cc3F)[C@@H](CC)N(O)C=O)o2)c1 [Example 122, 2,2′-((3-(5-((((2R,3R)-2-(2,4-difluorophenethyl)-3-(N-hydroxyformamido)pentanamido)methyl)carbamoyl)furan-2-yl)-5-ethoxybenzoyl)azanediyl)diacetic acid] | < 3980 | < 1000
8 | CCOc1cc(-c2ccc(C(=O)NCNC(=O)[C@H](CCc3ccc(F)cc3F)[C@@H](CC)N(O)C=O)o2)ccc1C(=O)N[C@@H](CC(=O)O)C(=O)O [Example 123, (S)-2-(4-(5-((((2R,3R)-2-(2,4-difluorophenethyl)-3-(N-hydroxyformamido)pentanamido)methyl)carbamoyl)furan-2-yl)-2-ethoxybenzamido) succinic acid] | < 3980 | < 1000
9 | CCOc1cc(-c2ccc(C(=O)NCNC(=O)[C@H](CCc3ccccc3)[C@@H](CC)N(O)C=O)o2)ccc1C(=O)N(CC(=O)O)CC(=O)O [Example 124, 2,2′-((2-ethoxy-4-(5-((((2R,3R)-3-(N-hydroxyformamido)-2-phenethylpentanamido)methyl)carbamoyl)furan-2-yl)benzoyl)azanediyl) diacetic acid] | < 3980 | < 1000
10 | CCCCC[C@@H](C(=O)NCNC(=O)c1ccc(-c2ccc(C(=O)N[C@@H](CC(=O)O)C(=O)O)c(OCC(=O)O)c2)o1)[C@@H](CC)N(O)C=O [Example 126, (S)-2-(2-(carboxymethoxy)-4-(5-((((R)-2-((R)-1-(N-hydroxyformamido)propyl)heptanamido)methyl)carbamoyl)furan-2-yl)benzamido) succinic acid] | < 3980 | < 1000
11 | CCOc1cc(-c2ccc(C(=O)NCNC(=O)[C@H](CCc3ccccc3)[C@@H](CC)N(O)C=O)o2)ccc1C(=O)N[C@@H](CC(=O)O)C(=O)O [Example 127, (S)-2-(2-ethoxy-4-(5-((((2R,3R)-3-(N-hydroxyformamido)-2-phenethylpentanamido)methyl)carbamoyl)furan-2-yl)benzamido) succinic acid] | < 3980 | < 1000
12 | CCCCC[C@@H](C(=O)NCNC(=O)c1ccc(-c2cc(O)c(C(=O)O)c(OCC)c2)o1)[C@@H](CC)N(O)C=O [Example 128, 2-ethoxy-6-hydroxy-4-(5-((((R)-2-((R)-1-(N-hydroxyformamido)propyl)heptanamido)methyl)carbamoyl)furan-2-yl)benzoic acid] | < 3980 | < 1000
13 | CCCCC[C@@H](C(=O)NCNC(=O)c1ccc(-c2ccc(C(=O)N[C@H](CC(=O)O)C(=O)O)c(OCC)c2)o1)[C@@H](CC)N(O)C=O [Example 132, (R)-2-(2-ethoxy-4-(5-((((R)-2-((R)-1-(N-hydroxyformamido)propyl)heptanamido)methyl)carbamoyl)furan-2-yl)benzamido) succinic acid] | < 3980 | < 1000
14 | CCCCC[C@@H](C(=O)NCNC(=O)c1ccc(-c2ccc(C(=O)NCP(=O)(O)O)c(OCC)c2)o1)[C@@H](CC)N(O)C=O [Example 139, ((2-ethoxy-4-(5-((((R)-2-((R)-1-(N-hydroxyformamido)propyl)heptanamido)methyl)carbamoyl)furan-2-yl)benzamido)methyl)phosphonic acid] | < 3980 | < 1000
